The nature of data set [1]: Intrinsic clearance in human liver microsomes at 1 uM. The data set is classed as ADME, Microsome. To be noted: read-out: CLH. On the technique in general: Microsomes from liver hold many membrane-bound enzymes, among them those of drug oxidation.
A short description of data set [2]: Apparent permeability from apical to basal side of human Caco2 cells at 10 uM. The following applies: Caco-2. The data set is classed as ADME, cell-based. Background: Passage across Caco-2 layers is used to estimate intestinal permeability.
Data set [3] in a line: Intrinsic clearance in rat liver microsomes. Type of data set: ADME, Microsome. The following applies: read-out: CLH.
Data set [4] in a line: Clearance in rat at […], iv. To be noted: in vivo. Type of data set: ADME, organism-based.
Data set [5] is described as follows: AUC in rat at […], iv. The following applies: plasma. The data set is classed as ADME, organism-based.
Data set [6] is described as follows: Cmax in rat at […], sc. The data set is classed as ADME, organism-based. The following applies: in vivo. On the set-up: dose 5.9 umol/kg, route subcutaneous.
Data set [7] can be described thus: Half life in rat at […], iv. Type of data set: ADME, organism-based. The following applies: in vivo.
The nature of data set [8]: Ratio of drug level in brain to plasma in Sprague-Dawley rat. The following applies: read-out: BPR. Type of data set: ADME.
Data set [9] is described as follows: AUC in rat at […], sc. The data set is classed as ADME, organism-based. To be noted: plasma.
A short description of data set [10]: Drug excretion in iv dosed rat faces. Type of data set: ADME, organism-based, Feces. To be noted: faeces, read-out: Drug excretion.
A short description of data set [11]: AUC in dog at […], iv. Type of data set: ADME, organism-based, Canis lupus familiaris. The following applies: plasma.
The nature of data set [12]: AUC in rat at 12 umol/kg, po. Type of data set: ADME, organism-based. To be noted: plasma.
Data set [13] in a line: Clearance in dog hepatocytes assessed per 10^6 cells. To be noted: read-out: CLH. The data set is classed as ADME, cell-based, Canis lupus familiaris, Hepatocyte.
The nature of data set [14]: Half life in dog at […], iv. Type of data set: ADME, organism-based, Canis lupus familiaris. To be noted: in vivo.
Data set [15] is described as follows: Drug excretion in rat faces at high dose, iv. The data set is classed as ADME, Feces. To be noted: faeces, read-out: Drug excretion.
A short description of data set [16]: Cmax in rat at 12 umol/kg, po. To be noted: in vivo. Type of data set: ADME, organism-based. Further details: dose 12 umol/kg, route oral.
The nature of data set [17]: Oral bioavailability in rat at 58 umol/kg. The data set is classed as ADME, organism-based. To be noted: in vivo.
Data set [18] in a line: Clearance in dog at […], iv. The data set is classed as ADME, organism-based, Canis lupus familiaris. The following applies: in vivo.
Data set [19] is described as follows: AUC in rat at 11 umol/kg, iv. The following applies: plasma. The data set is classed as ADME, organism-based.
Data set [20] is described as follows: Half life in rat at 11 umol/kg, iv. The data set is classed as ADME, organism-based. The following applies: in vivo.
Data set [21] can be described thus: Cmax in rat at 58 umol/kg, po. Type of data set: ADME, organism-based. On the set-up: dose 58 umol/kg, route oral. To be noted: in vivo.
Data set [22] can be described thus: Clearance in rat at 11 umol/kg, iv. The data set is classed as ADME, organism-based. The following applies: in vivo.
Data set [23] can be described thus: Lipophilicity, log D of the compound at pH 7.4. Type of data set: physicochemical. To be noted: buffer.
Data set [24] in a line: Oral bioavailability in rat at 12 umol/kg. The following applies: in vivo. Type of data set: ADME, organism-based.
Data set [25] can be described thus: AUC in rat at 58 umol/kg, po. The data set is classed as ADME, organism-based. The following applies: plasma.

Regarding `CC(=O)N1CCN(c2nc(NCc3ccc(C(F)(F)F)cc3)c3c(n2)C(=O)N(C(C)C)C3)CC1`, the microsomal CLint at 1 µM in [1] is 31 µL/min/mg.
The Papp A→B is how fast a substance crosses the layer from the apical side. For the compound `CCOc1ccc([C@H](Nc2nc(N3CCN(C(C)=O)CC3)nc3c2CN(C(C)C)C3=O)C(F)(F)F)cc1`, the apical-to-basolateral permeability (Papp A→B) at 10 µM in data set [2] turned out to be 2 ×10⁻⁶ cm/s. For the same compound, the microsomal CLint at 1 µM in data set [1] is 5 µL/min/mg.
Consider `CC(=O)N1CCN(c2nc(NCc3ccc(Cl)cc3)c3c(n2)C(=O)N(C(C)C)C3)CC1`, for which the microsomal CLint at 1 µM in [1] amounted to 6 µL/min/mg.
With `CCOc1ccc([C@@H](C)Nc2nc(N3CCN(C(C)=O)CC3)nc3c2CN(C(C)C)C3=O)cc1F`, in data set [2], the Papp A→B at 10 µM was 0.8 ×10⁻⁶ cm/s. The microsomal CLint at 1 µM in data set [1] was determined as 17 µL/min/mg.
Taken in the same sequence, the figures for `CC(=O)N1CCN(c2nc(NCc3ccc(OC(F)(F)F)cc3)c3c(n2)C(=O)N(C(C)C)C3)CC1` were 2.9 ×10⁻⁶ cm/s and 4 µL/min/mg.
Taken in the same sequence, the figures for `CC(=O)N1CCN(c2nc(NCc3cnc4ccccc4c3)c3c(n2)C(=O)N(C(C)C)C3)CC1` were 0.1 ×10⁻⁶ cm/s and 11 µL/min/mg.
As to `CC(=O)N1CCN(c2nc(NCc3cc4ccccc4cn3)c3c(n2)C(=O)N(C(C)C)C3)CC1`, in data set [2], the Papp A→B at 10 µM was found to be 0.6 ×10⁻⁶ cm/s. For the same compound, the microsomal CLint at 1 µM in [1] was determined as 16 µL/min/mg.
As for `COc1cc(OC(F)(F)F)ccc1CNc1nc(N2CCN(C(C)=O)CC2)nc2c1CN(C(C)C)C2=O`, in [1], the microsomal CLint at 1 µM is 31 µL/min/mg.
As to `CC(=O)N1CCN(c2nc(N[C@H](C)c3ccc(OC(F)(F)F)cc3)c3c(n2)C(=O)N(C(C)C)C3)CC1`, the Papp A→B at 10 µM in data set [2] amounted to 4.5 ×10⁻⁶ cm/s. For the same compound, the microsomal CLint at 1 µM in data set [1] was 22 µL/min/mg.
With `CCOc1ccc([C@@H](CC)Nc2nc(N3CCN(C(C)=O)CC3)nc3c2CN(C(C)C)C3=O)cc1`, the microsomal CLint at 1 µM in data set [1] worked out at 10 µL/min/mg. Besides, the microsomal CLint in [3] stood at 58 µL/min/mg.
As usually defined, the clearance is the rate of elimination divided by the concentration. The low end stands for a low capacity for elimination, the high end for a high capacity for elimination. As a reminder, the AUC is concentration integrated over time. In general, Cmax refers to the maximum level reached in the sampled fluid or tissue. Broadly, the half-life is the time needed for the level to fall by half in the phase considered. Low readings indicate fast loss, high ones slow loss. In data set [4], `CC(=O)N1CCN(c2nc(NC(C)(C)Cc3ccc(Cl)cc3)c3c(n2)C(=O)N(C(C)C)C3)CC1` had a clearance of 54 mL/min/kg. Moreover, the exposure (AUC) was 0.7 µM·h in [5] and 2.8 µM·h in [9]. Also, in data set [6], the Cmax came to 1000 nM. The compound also gave a half-life in data set [7] of 0.9 h. In data set [8], the Kp is 0.02. In data set [3], the microsomal CLint came out at 83 µL/min/mg.
With `COc1ccc([C@@H](C)Nc2nc(N3CCN(C(C)=O)CC3)nc3c2CN(C(C)C)C3=O)cc1`, in data set [1], the microsomal CLint at 1 µM amounted to 4 µL/min/mg.
On the same count and under the same terms, the result for `CCOc1ncc([C@@H](C)Nc2nc(N3CCN(C(C)=O)CC3)nc3c2CN(C(C)C)C3=O)cc1F` reads 7 µL/min/mg.
For the compound `CC(=O)N1CCN(c2nc3c(c(N(C)Cc4cc5ccccc5cn4)n2)CN(C(C)C)C3=O)CC1`, the Papp A→B at 10 µM in data set [2] is 2.9 ×10⁻⁶ cm/s. Besides, in data set [1], the microsomal CLint at 1 µM turned out to be 19 µL/min/mg.
For orientation: bioavailability means dose-corrected exposure relative to a reference, in per cent. Read a low bioavailability as little systemic uptake. For orientation: logD means lipophilicity at a set pH, counting ionised and neutral species. Low readings indicate a more hydrophilic compound, high ones a more lipophilic compound. Take `CCOc1ccc([C@@H](C)Nc2nc(N3CCN(C(C)=O)CC3)nc3c2CN(C(C)C)C3=O)cc1`: the dose excreted in data set [10] was over 15%; in [15] it was under 3%. Further, the clearance turned out to be 88 mL/min/kg in data set [4], 8 mL/min/kg in [18] and 22 mL/min/kg in data set [22]. For the same compound, the exposure (AUC) in data set [11] worked out at 4.8 µM·h; in data set [5], 0.4 µM·h; in [12], 0.4 µM·h; in [19] it was 8.05 µM·h; in data set [25], 1.8 µM·h. Moreover, the apical-to-basolateral permeability (Papp A→B) at 10 µM in [2] was 2.4 ×10⁻⁶ cm/s. In addition, in data set [13], the hepatocyte CLint turned out to be 2.5 µL/min/1e6 cells. The half-life is 14.5 h in data set [14], 2 h in [20] and 0.5 h in [7]. The Cmax was determined as 100 nM in data set [16] and 6900 nM in [21]. In addition, the bioavailability is 62% in [17] and 16% in data set [24]. Further, the microsomal CLint at 1 µM in [1] came to 10 µL/min/mg. Also, the logD in data set [23] turned out to be 3. The microsomal CLint in [3] was 17 µL/min/mg.
Regarding `CC(C)N1Cc2c(NC(c3ccccc3)c3ccccc3)nc(N3CCOCC3)nc2C1=O`, the logD in data set [23] turned out to be 4.3.

The record behind these values is ChEMBL document CHEMBL2010731, “Discovery of P2X3 selective antagonists for the treatment of chronic pain” (Bioorg Med Chem Lett, 2012).
